Data set [1] has as its system SKINETHIC™ human skin model. Kind of data set: Skin irritation test. The class given is cell-based. The conditions noted are these: relative to negative control group (PBS). The protocol: In the skin irritation test, the absorbance was measured for a […]™ human skin model, and a cell viability value (%) was calculated using [Equation 4] to [Equation 6].
Cell viability (%) of negative control group=[absorbance of negative control group/absorbance of negative control group]×100 [Equation 4]
Cell viability (%) of positive control group=[absorbance of positive control group/absorbance of negative control group]×100 [Equation 5]

The test system of data set [2] is bovine cornea (eye mucosa irritation). The text has this:
The BCOP assay is a test to evaluate an irritation index for the eye mucosa using opacity and permeability. […] An in vitro irritancy score (IVIS) may be calculated by measuring the opacity and permeability, and the IVIS value may be calculated by [Equation 3].
IVIS=Mean opacity unit[…] [Equation 3]

The subject of the next data set is cells. Kind of data set: Annexin V/PI toxicity evaluation. Type of data set: cell-based. Conditions: spots in upper right end indicate dead cells.
Another data set relates to E. coli. Kind of data set: Sterilization test of nitrogen oxide solutions without plasma. The conditions noted are these: ionized nitrogen oxide solutions without plasma. The class given is cell-based. Here is the method:
(§1) In order to confirm a sterilization effect of nitrogen oxides without plasma, ionized NO, NO2 and NO3 solutions were prepared and then sterilization experiments of S. typhimurium, S. aureus and E. coli were tested.

In the next data set the test system is S. aureus. The data set is described as above. The conditions noted are these: ionized nitrogen oxide solutions without plasma. The class given is cell-based. Here is the method: as §1
Another data set has as its system S. typhimurium. Described as above. The class given is cell-based. Conditions: ionized nitrogen oxide solutions without plasma. The protocol:
as §1

Structures can show the parent of a compound that is named as a salt.

In the case of `CN(C)CCCN1c2ccccc2Sc2ccc(Cl)cc21` [chlorpromazine hydrochloride], the phototoxicity conclusion entry with BALB/3T3 clone A31 cells is “phototoxicity was shown”. In the data set on BALB/3T3 clone A31 cells (mouse), the “mean photo effect (MPE)” value was 0.418 and the “photo irritation factor (PIF)” value stood at 18.882.

As to `CCCCCCCCCCCCOS(=O)(=O)[O-].[Na+]` [sodium dodecyl sulfate], in data set [1], the cell viability entry is recorded as “about 1.1%”.

Turning to `CCO` [ethyl alcohol], the “corneal opacity (appearance)” value in data set [2] is recorded as “completely opaque”. Further, in data set [2] (bovine), the “IVIS (in vitro irritancy score)” value amounted to 39.4 ± 3.6, the Opacity unit was 19.9 ± 0.6 and the “Transmittance (Absorbance (OD490))” value worked out at 1.300 ± 0.203.

With `OO` [H2O2, hydrogen peroxide], in the data set on cells, the “Annexin V/PI toxicity” value was “many spots were present in the upper right end”.

With `O=NO` [NO2], the sterilization effect result with E. coli, in the data set on S. aureus and in the data set on S. typhimurium was “no sterilization effect was observed” each time.

In the case of `O=[N+]([O-])O` [NO3], the sterilization effect result in the data set on E. coli, in the data set on S. aureus and in the data set with S. typhimurium was “no sterilization effect was observed” each time.

These data come from patent US20230285450A1 (priority 2020, published 2023).
